We go through nine molecules from patent US11975073B2 (priority 2020, dated 2024).

For data set [1] the following is noted: male, Sprague-Dawley, rat, in vivo, po.
For data set [2] the following is noted: cynomolgus monkey, in vivo, po; for AUCinf, free allopregnanolone / AUCinf, total allopregnanolone / Cmax, free allopregnanolone / Cmax, total allopregnanolone: male, 8.8 umol/kg.
The conditions of data set [3]: Sprague-Dawley, rat, in vivo, 8.8 umol/kg.

Like-named read-outs stand apart in the source and are kept apart here.

`CCCCCCCC/C=C\CCCCCCCC(=O)OCC(COC(=O)CCCCCCC/C=C\CCCCCCCC)OC(=O)CCCCCCC(=O)OCO[C@@H]1CC[C@@]2(C)[C@@H](CC[C@@H]3[C@@H]2CC[C@]2(C)[C@@H](C(C)=O)CC[C@@H]32)C1` [I-41]: the time of peak concentration (Tmax) in data set [1] (2 mg/kg) was 1.7 h.
The same measure, in the same setting: to `CCCCCCCC/C=C\CCCCCCCC(=O)OCC(COC(=O)CCCCCCC/C=C\CCCCCCCC)OC(=O)CCCCC(C)CC(=O)OCOC(=O)O[C@@H]1CC[C@@]2(C)[C@@H](CC[C@@H]3[C@@H]2CC[C@]2(C)[C@@H](C(C)=O)CC[C@@H]32)C1` (stereo partly drawn) [I-49, ALL-CASI-C8b′Me-2-TG-oleate] belongs 1.7 h.
On to `CC(=O)OCC(COC(C)=O)OC(=O)CC(C)CC(=O)OC(C)OC(=O)O[C@@H]1CC[C@@]2(C)[C@@H](CC[C@@H]3[C@@H]2CC[C@]2(C)[C@@H](C(C)=O)CC[C@@H]32)C1` (stereo partly drawn) [I-38], for which, in data set [1], the “Mean Plasma AUC, 0-24 h” value was 450 nmol·h/L and the time of peak concentration (Tmax) is 1 h.
Consider `CCCC(=O)OCC(COC(=O)CCC)OC(=O)CC(C)CC(=O)OC(C)OC(=O)O[C@@H]1CC[C@@]2(C)[C@@H](CC[C@@H]3[C@@H]2CC[C@]2(C)[C@@H](C(C)=O)CC[C@@H]32)C1` (stereo partly drawn) [I-37], for which, in data set [1], the time to peak (Tmax) turned out to be 0.8 h.
As for `CCCCCCCC/C=C\CCCCCCCC(=O)OCC(COC(=O)CCCCCCC/C=C\CCCCCCCC)OC(=O)CC(C)CC(=O)OCO[C@@H]1CC[C@@]2(C)[C@@H](CC[C@@H]3[C@@H]2CC[C@]2(C)[C@@H](C(C)=O)CC[C@@H]32)C1` (stereo partly drawn) [I-9], in data set [1] (2 mg/kg), the Cmax was found to be 126 nM; the “Mean Plasma AUC, 0-24 h” value came out at 192.1 nmol·h/L; the Tmax is given as 1.3 h.
Regarding `CCCCCCCC(=O)OCC(COC(=O)CCCCCCC)OC(=O)CC(C)CC(=O)OCOC(=O)O[C@@H]1CC[C@@]2(C)[C@@H](CC[C@@H]3[C@@H]2CC[C@]2(C)[C@@H](C(C)=O)CC[C@@H]32)C1` (stereo partly drawn) [I-47, ALL-CASI-C5bMe-2-TG-octanoate], in data set [2], the “Prodrug detectability in plasma samples after dose administration” value is “detectable in plasma samples after dose administration at all time-points”; the “AUCinf, free allopregnanolone” value turned out to be 0.78 nmol·h/L; the “AUCinf, total allopregnanolone” value was 7.4 nmol·h/L; the “Cmax, free allopregnanolone” value stood at 0.12 µM. In addition, the “Cmax, total allopregnanolone” value in data set [2] turned out to be 1.17 µM. For the same molecule, in data set [3], the “AUCinf, free allopregnanolone” value was 1.15 nmol·h/L; the “AUCinf, total allopregnanolone” value was 3.03 nmol·h/L; the “Cmax, free allopregnanolone” value stood at 0.52 µM; the “Cmax, total allopregnanolone” value came to 0.9 µM.
As for `CCCCCCCC/C=C\CCCCCCCC(=O)OCC(COC(=O)CCCCCCC/C=C\CCCCCCCC)OC(=O)CCCCC(=O)OCO[C@@H]1CC[C@@]2(C)[C@@H](CC[C@@H]3[C@@H]2CC[C@]2(C)[C@@H](C(C)=O)CC[C@@H]32)C1` [I-40], the Tmax in data set [1] (2 mg/kg) came to 1.7 h.
On the same count and under the same terms, to `CCCCCCCC/C=C\CCCCCCCC(=O)OCC(COC(=O)CCCCCCC/C=C\CCCCCCCC)OC(=O)CC(C)CCCCC(=O)OCO[C@@H]1CC[C@@]2(C)[C@@H](CC[C@@H]3[C@@H]2CC[C@]2(C)[C@@H](C(C)=O)CC[C@@H]32)C1` (stereo partly drawn) [I-42] belongs 1.5 h.
For `CCCCCCCC(=O)OCC(COC(=O)CCCCCCC)OC(=O)CC(C)CC(=O)OC(C)OC(=O)O[C@@H]1CC[C@@]2(C)[C@@H](CC[C@@H]3[C@@H]2CC[C@]2(C)[C@@H](C(C)=O)CC[C@@H]32)C1` (stereo partly drawn) [I-36, ALL-CMSI-C5bMe-2-TG-octanoate], in data set [1], the peak level (Cmax) was 242 nM and the time to peak (Tmax) came out at 1.2 h. Moreover, in data set [2], the “Prodrug detectability in plasma samples after dose administration” value is given as “detectable in plasma samples after dose administration at all time-points”; the “AUCinf, free allopregnanolone” value was determined as 0.62 nmol·h/L; the “AUCinf, total allopregnanolone” value came to 16.2 nmol·h/L; the “Cmax, free allopregnanolone” value was found to be 0.10 µM. Moreover, the “Cmax, total allopregnanolone” value in data set [2] turned out to be 2.72 µM. Moreover, in data set [3], the “AUCinf, free allopregnanolone” value is 1.12 nmol·h/L; the “AUCinf, total allopregnanolone” value stood at 3.86 nmol·h/L; the “Cmax, free allopregnanolone” value was found to be 0.54 µM; the “Cmax, total allopregnanolone” value was 0.8 µM.
